Series [1] concerns HePG-2. Kind of series: Cytotoxic activity, MTT assay. It counts as cell-based. The settings on record: Homo sapiens, read-out: Cytotoxic activity (IC50) HePG-2. From the text: (§1) Doxorubicin was used as a positive control drug.
For orientation: Tetrazolium assays rely on reduction of a dye to a coloured formazan, in cell work by metabolically active cells.

Series [2] has as its system Pseudomonas aeruginosa ATCC27853. Description: Antibacterial activity, growth inhibition in 96 well plates (OD600). Format: cell-based. The conditions noted are these: NA: no activity; for inhibition at 15 µM: Pseudomonas aeruginosa; for Growth inhibition % Pseudomonas aeruginosa: at 15 µM, 15 µM. The method, then: (§2) The antibacterial activity of all isolated pure compounds (1–3, 9, and 10) was evaluated on Gram-positive pathogenic bacteria such as Bacillus subtilis (ATCC29212) and Staphylococcus aureus (ATCC9144 (and Gram-negative pathogenic bacteria such as Escherichia coli. (ATCC25922) and Pseudomonas aeruginosa (ATCC27853), as previously reported. The tests were carried out in 96 well flat polystyrene plates. First, 10 μL of each isolated compound (15 µM) was transferred to 80 μL of lysogeny broth followed by the addition of 10 μL of bacterial suspension at log phase, and then all inoculated plates were incubated overnight at 37 °C. […] The absorbance was observed after 20 h at OD600 in a Spectrostar Nano Microplate Reader (BMG LABTECH GmbH, Allmendgrun, Germany). The positive control was pathogenic bacteria plus distilled water, while the negative control was growth medium plus distilled water.

Series [3] deals with Staphylococcus aureus ATCC9144. The description is as above. Format: cell-based. The conditions noted are these: NA: no activity; for inhibition at 15 µM: Staphylococcus aureus, ATCC9144, at 15 µM; for Growth inhibition % Staphylococcus aureus: at 15 µM, 15 µM. The method, then: as §2
The test system of series [4] is Escherichia coli ATCC25922. The description is as above. It counts as cell-based. How it is done: as §2
The test system of series [5] is Bacillus subtilis ATCC29212. The series is described as above. It counts as cell-based. The method, then: as §2
Series [6] has as its target Staphylococcus pyruvate kinase (PK) (Staphylococcus aureus, UniProt Q6GG09). Kind of series: In vitro enzyme assay, pyruvate kinase inhibition. It counts as biochemical. The conditions noted are these: IC50 ± SD. The method, then: (§3) DNA gyrase (type II topoisomerase) and topoisomerase IV (ParE) add negative supercoils into DNA using ATP hydrolysis as a source of energy. They are considered crucial bacterial enzymes that are absent in eukaryotes. DNA-gyrase-B- and ParE-inhibitory activities were evaluated using the Inspiralis assay kit (Inspiralis®, London, UK) on streptavidin-coated 96 well microtiter plates (Thermo Scientific, Hamburg, Germany), according to the manufacturer’s protocol. The assay detects the ability of the isolated compounds to prevent the ATPase activity of both gyrase-B and ParE subunits. On the other hand, pyruvate kinase (PK) has been discovered to be an important hub protein in the interactome of MRSA [52]. The PK-inhibitory activity of the isolated compounds was assessed according to a previously reported method.

For series [7], the system named is HCT116. Kind of series: Cytotoxic activity, MTT assay. The settings on record: Homo sapiens, HCT-116, 24 h, read-out: Cytotoxic activity (IC50) HCT116. How it is done: (§4) The cell lines were purchased from ATCC by (VACSERA), Cairo, Egypt. […] The cell lines were used to detect the inhibitory effects of isolated compounds on cell growth. Cell viability was determined via colorimetric assay (MTT), which is based on the transformation of the yellow tetrazolium bromide to a purple formazan by mitochondrial succinate dehydrogenase. […] Subsequently, the cells were mixed with different concentrations of the isolated compounds and incubated for a further 24 h, and then treated with 20 µL of MTT solution at a concentration of 5 mg/mL and incubated for 4 h. […] The relative cell viability as a percentage was calculated as A570 of treated samples/A570 of untreated sample × 100.

Series [8] has as its system MCF7. Description: Cytotoxic activity, MTT assay. The conditions noted are these: Homo sapiens, MCF7, 24 h, read-out: Cytotoxic activity (IC50) MCF7. How it is done: as §4
A short description of series [9]: in vitro. The settings on record: human. The method, then: as §4
In series [10] the test system is S. aureus. Description: Antibiofilm activity, crystal violet staining. It counts as cell-based, Staphylococcus aureus. The settings on record: NA: no activity; for inhibition at 2 µM: Staphylococcus aureus; for Antibiofilm activity (% inhibition) S. aureus: at 2 µM, 2 µM. The method, then: (§5) The biofilm-inhibitory activities of the isolated pure compounds (1–3, 9, and 10) were measured using 96 well flat polystyrene plates against four clinical microbes comprising Gram-positive (Bacillus subtilis and Staphylococcus aureus) and Gram-negative (Escherichia coli and Pseudomonas aeruginosa) pathogenic bacteria, according to Antunes, et al. with some modifications. Briefly, each well was filled with 180 µL lysogeny broth (LB broth) and then inoculated with 10 µL of pathogenic bacteria followed by addition of 10 µL of sample (2 µM) along with control (without test sample). All inoculated plates were then incubated overnight at 37 °C and, after incubation, content in the wells was removed and wells were rinsed with 200 µL of phosphate-buffered saline (PBS) pH 7.2 to eliminate free-floating microbes and left to dry under sterilized laminar flow for 1 h. For staining, 200 µL/well of crystal violet (0.1%, w/v) was added, left for 1 h, and then excessive stain was removed and plates retained for drying. Further, dried plates were rinsed with 95% ethanol and optical density was measured at 570 nm using a Spectrostar Nano Microplate Reader (BMG LABTECH GmbH, Allmendgrun, Germany).

Series [11] has as its system P. aeruginosa. Description: Antibiofilm activity, crystal violet staining. It counts as cell-based, Pseudomonas aeruginosa. The conditions noted are these: for inhibition at 2 µM: Pseudomonas aeruginosa. The method, then:
as §5

Series [12] deals with T1, Staphylococcus DNA gyrase-B (Staphylococcus aureus, UniProt P0A0K8).
T1 construct: purchased Inspiralis
T1 sequence (P0A0K8 whole entry): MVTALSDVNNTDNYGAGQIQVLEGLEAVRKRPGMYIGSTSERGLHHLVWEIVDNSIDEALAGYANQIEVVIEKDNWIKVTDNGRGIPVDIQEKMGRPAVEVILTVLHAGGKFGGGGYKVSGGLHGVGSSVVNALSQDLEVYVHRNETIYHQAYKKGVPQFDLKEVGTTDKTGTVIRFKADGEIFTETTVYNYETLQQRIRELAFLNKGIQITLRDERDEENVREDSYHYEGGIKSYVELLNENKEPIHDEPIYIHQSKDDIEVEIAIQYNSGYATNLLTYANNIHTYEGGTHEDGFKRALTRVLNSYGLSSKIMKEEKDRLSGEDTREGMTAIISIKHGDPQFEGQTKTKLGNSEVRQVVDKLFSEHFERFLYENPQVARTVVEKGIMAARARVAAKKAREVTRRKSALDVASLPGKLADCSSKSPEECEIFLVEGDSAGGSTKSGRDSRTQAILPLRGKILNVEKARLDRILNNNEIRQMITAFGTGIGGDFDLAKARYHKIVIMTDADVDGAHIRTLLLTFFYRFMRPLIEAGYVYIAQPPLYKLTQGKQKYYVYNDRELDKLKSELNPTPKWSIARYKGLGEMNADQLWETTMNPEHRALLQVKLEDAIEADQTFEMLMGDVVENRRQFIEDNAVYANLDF
T1 sequence (P20831 whole entry partner): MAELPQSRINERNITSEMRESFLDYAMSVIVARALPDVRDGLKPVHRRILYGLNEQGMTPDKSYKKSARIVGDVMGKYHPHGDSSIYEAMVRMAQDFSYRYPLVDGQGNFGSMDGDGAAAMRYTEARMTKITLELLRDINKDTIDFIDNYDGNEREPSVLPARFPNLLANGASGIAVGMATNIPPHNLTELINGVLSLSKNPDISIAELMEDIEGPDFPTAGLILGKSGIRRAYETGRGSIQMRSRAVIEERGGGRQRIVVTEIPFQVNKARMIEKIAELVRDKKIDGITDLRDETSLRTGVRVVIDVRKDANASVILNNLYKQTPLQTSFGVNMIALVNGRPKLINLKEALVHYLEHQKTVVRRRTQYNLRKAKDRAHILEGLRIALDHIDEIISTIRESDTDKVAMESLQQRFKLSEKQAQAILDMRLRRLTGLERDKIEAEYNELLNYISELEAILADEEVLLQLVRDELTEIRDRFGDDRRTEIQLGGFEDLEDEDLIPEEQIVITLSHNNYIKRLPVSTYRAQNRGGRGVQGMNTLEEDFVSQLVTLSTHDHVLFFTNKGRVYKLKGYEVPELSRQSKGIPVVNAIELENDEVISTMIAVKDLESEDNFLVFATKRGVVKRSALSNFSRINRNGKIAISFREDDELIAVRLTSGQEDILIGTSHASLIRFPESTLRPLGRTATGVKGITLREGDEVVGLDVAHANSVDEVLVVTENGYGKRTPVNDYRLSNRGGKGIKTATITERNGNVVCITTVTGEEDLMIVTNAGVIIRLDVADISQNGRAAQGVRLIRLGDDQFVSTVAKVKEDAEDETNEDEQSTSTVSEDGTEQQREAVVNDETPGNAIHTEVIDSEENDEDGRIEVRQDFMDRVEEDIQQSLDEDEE
Kind of series: In vitro enzyme assay, DNA gyrase-B ATPase (Inspiralis kit). It counts as biochemical. How it is done: as §3

Series [13] relates to E. coli. Description: Antibiofilm activity, crystal violet staining. The settings on record: Escherichia coli, read-out: Antibiofilm activity (% inhibition) E. coli. Format: cell-based. The method, then: as §5
Series [14] has as its system B. subtilis. Description: Antibiofilm activity, crystal violet staining. It counts as cell-based. The conditions noted are these: Bacillus subtilis, NA: no activity. How it is done: as §5
For series [15], the system named is four human cancer cell lines. Description: Cytotoxic activity, MTT assay, all four tested cell lines together. The settings on record: range over WI38, HCT116, HePG-2, MCF7, read-out: IC50 values towards the tested cell lines (range). Format: cell-based.
Source text: as §1

The mark [16] stands for this setting: ATCC27853, at 15 µM, read-out: Growth inhibition % Pseudomonas aeruginosa.
Setting [17] is: ATCC25922, at 15 µM, NA: no activity, read-out: Growth inhibition % Escherichia coli.
[18] abbreviates: ATCC29212, at 15 µM, NA: no activity, read-out: Growth inhibition % Bacillus subtilis.
Setting [19] is: at 2 µM, read-out: Antibiofilm activity (% inhibition) P. aeruginosa.
The mark [20] stands for this setting: IC50 ± SD, read-out: IC50 (µM) Gyr-B.

Read-outs that look alike come from different tables or passages of the source.

A word on the IC50: it is the concentration needed to halve the response being measured. The inhibition is the change of the read-out against control, counted positive when it falls.

Staphylococcus pyruvate kinase (PK), sequence (Q6GG09 whole entry): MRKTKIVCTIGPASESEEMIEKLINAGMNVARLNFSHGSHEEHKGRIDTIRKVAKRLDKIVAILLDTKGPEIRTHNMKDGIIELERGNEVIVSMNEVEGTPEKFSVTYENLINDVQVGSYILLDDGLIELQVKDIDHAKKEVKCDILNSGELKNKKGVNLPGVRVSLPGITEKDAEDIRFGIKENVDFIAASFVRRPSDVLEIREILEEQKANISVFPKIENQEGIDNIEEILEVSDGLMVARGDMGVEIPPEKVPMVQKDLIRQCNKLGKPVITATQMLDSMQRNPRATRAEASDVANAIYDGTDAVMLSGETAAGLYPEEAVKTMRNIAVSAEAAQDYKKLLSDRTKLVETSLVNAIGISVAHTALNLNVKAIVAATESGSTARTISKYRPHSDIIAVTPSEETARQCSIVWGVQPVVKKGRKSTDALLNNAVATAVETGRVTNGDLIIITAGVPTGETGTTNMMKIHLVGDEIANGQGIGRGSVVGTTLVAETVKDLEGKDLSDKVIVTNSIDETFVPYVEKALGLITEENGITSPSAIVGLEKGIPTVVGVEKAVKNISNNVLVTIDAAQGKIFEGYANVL

Take `COC(=O)c1cccc2nc3c(C(=O)OC)cccc3nc12` [Compound 1, dimethyl phenazine-1,6-dicarboxylate]: the IC50 is 92.1 ± 4.7 µM in [1] (HepG2, 24 h); 7.2 ± 0.07 µM in series [6]; 85 ± 3.9 µM in series [7]; above 100 µM in [8]; 19.2 ± 1.69 µM in [12] (setting [20]). Moreover, the inhibition at 15 µM in series [2] (setting [16]) came to 23.4 ± 1.7%; in series [3] it was 47%; in series [4] (setting [17]), 9.93 ± 1.3%; in series [5] (setting [18]) it was 19.6 ± 1.5%. Also, in series [3], the “Growth inhibition % Staphylococcus aureus” value came to 57.19 ± 1.2%. For the same compound, the 50% inhibitory concentration (IC50) at 24 h in series [9] turned out to be 63.2 ± 3.6 µM. The inhibition at 2 µM in series [10] was 50%; in series [11] (setting [19]) it was 18.4 ± 0.9%; in series [13] (at 2 µM) it was 36.7 ± 2.9%; in series [14], 12.1 ± 3.2%. Moreover, the “Antibiofilm activity (% inhibition) S. aureus” value in [10] stood at 50.26 ± 0.4%.

As to `COC(=O)c1cccc2nc3c(C(=O)O)cccc3nc12` [Compound 2, phenazine-1,6-dicarboxylic acid mono methyl ester], the IC50 in [1] (HepG2, 24 h) came to 76.1 ± 3.9 µM; in series [6], 9.3 ± 0.03 µM; in series [7] it was 60.8 ± 3.5 µM; in series [8], 82.2 ± 4.4 µM; in series [12] (setting [20]) it was 21.3 ± 2.36 µM. Further, the inhibition at 15 µM in [2] (setting [16]) was 23.2 ± 2.2%; in series [3] it was 69%; in series [4] (setting [17]) it was 11.2 ± 1.4%; in series [5] (setting [18]), 32.1 ± 1.3%. The “Growth inhibition % Staphylococcus aureus” value in series [3] is 68.87 ± 0.8%. For the same compound, the IC50 at 24 h in [9] stood at 76.3 ± 3.9 µM. In addition, the inhibition at 2 µM in [10] came out at 75%; in [11] (setting [19]), 22.3 ± 1.5%; in series [13] (at 2 µM), 54.1 ± 2.5%; in series [14], 18.6 ± 1.6%. For the same compound, the “Antibiofilm activity (% inhibition) S. aureus” value in [10] was 75.10 ± 2.4%.

As to `O=C(O)c1cccc2nc3ccccc3nc12` [Compound 3, phenazine-1-carboxylic acid], the IC50 was above 100 µM in series [1] (HepG2, 24 h); 22.5 ± 0.04 µM in [6]; 91.3 ± 4.6 µM in series [7]; above 100 µM in series [8]; 27.7 ± 1.08 µM in series [12]. Besides, the inhibition at 15 µM in series [2] (ATCC27853, read-out: Growth inhibition % Pseudomonas aeruginosa, at 15 µM) was 94%; in [4] (ATCC25922, read-out: Growth inhibition % Escherichia coli) it was 24.3 ± 1.8%; in [5] (ATCC29212, read-out: Growth inhibition % Bacillus subtilis), 1.69 ± 1.2%. The “Growth inhibition % Pseudomonas aeruginosa” value in [2] is given as 94.17 ± 2.8%. Moreover, the IC50 at 24 h in series [9] is 51.2 ± 3.2 µM. For the same compound, the inhibition at 2 µM is 94% in series [11] (read-out: Antibiofilm activity (% inhibition) P. aeruginosa, at 2 µM) and 54.7 ± 1.4% in series [13]. The “Antibiofilm activity (% inhibition) P. aeruginosa” value in [11] (at 2 µM) is 93.98 ± 2.2%.

`CC(=O)Nc1ccccc1O` [Compound 9, N-(2-hydroxyphenyl)-acetamide]: the IC50 in series [1] (HepG2, 24 h) was 10.2 ± 0.9 µM; in [15], 10 to 36 µM; in [7], 14.6 ± 1.2 µM; in series [8], 12.7 ± 1.1 µM. Besides, the inhibition at 15 µM in [2] (setting [16]) was 4.74 ± 1.6%. Besides, in series [9], the IC50 at 24 h is 36.5 ± 2.3 µM. The inhibition at 2 µM in series [10] stood at 11.5 ± 2.9%; in series [11] (setting [19]), 7.39 ± 1.9%; in series [13] (at 2 µM), 34.5 ± 2.6%; in series [14], 4.91 ± 1.8%.

For `COc1ccc(C(N)=O)cc1` [Compound 10, p-anisamide], the IC50 in series [1] (HepG2, 24 h) was above 100 µM; in [7], above 100 µM; in series [8], above 100 µM. Also, the inhibition at 15 µM was determined as 70% in series [2] (setting [16]), 53.2 ± 1.2% in [3], 19.3 ± 2.5% in [4] (setting [17]) and 42.2 ± 1.9% in series [5] (setting [18]). In addition, in series [2], the “Growth inhibition % Pseudomonas aeruginosa” value amounted to 70.23 ± 1.1%. In series [9], this compound had an IC50 at 24 h above 100 µM. For the same compound, the inhibition at 2 µM in [10] is 61.2 ± 3.7%; in series [11] (setting [19]), 73%; in [13] (at 2 µM), 57.5 ± 3.1%; in series [14], 20.3 ± 1.1%. Moreover, the “Antibiofilm activity (% inhibition) P. aeruginosa” value in [11] (at 2 µM) is on record as 73.52 ± 1.3%.

With `COc1cccc2c1C(=O)c1c(O)c3c(c(O)c1C2=O)C[C@@](O)(C(=O)CO)C[C@@H]3O[C@H]1C[C@H](N)[C@H](O)[C@H](C)O1` [Doxorubicin, reference compound], the IC50 in [1] (HepG2, MTT, 24 h, table title prints "at 2 µM") was 4.5 ± 0.2 µM.

With `CNC(C)C1CCC(N)C(OC2C(N)CC(N)C(OC3OCC(C)(O)C(NC)C3O)C2O)O1` (centres unmarked) [Gentamicin, reference compound], the inhibition at 15 µM in [2] (setting [16]) came out at 99.7 ± 0.2%; in series [3], 99.1 ± 0.7%; in series [4] (setting [17]), 99 ± 0.6%; in series [5] (setting [18]) it was 97 ± 1.6%.

The values are drawn from publication PMC7281614, “Induction of Antibacterial Metabolites by Co-Cultivation of Two Red-Sea-Sponge-Associated Actinomycetes Micromonospora sp. UR56 and Actinokinespora sp. EG49” (Marine Drugs, 2020).
